Experimental data published in patent publication US9963445B2, “Chemical compounds” (SYNGENTA PARTICIPATIONS AG, priority 2013, dated 2018).

Experiments:
Format in all cases: in vivo
Alopecurus myosuroides [1] = experiment: Pre-emergence herbicidal activity, glasshouse pot test; conditions: pre-emergence spray, rate 1000 g/ha, evaluated after 13 days, scale 0-5
Summary of the method: (§1)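 Glasshouse conditions were 24/16 °C day/night with 14 h light and 65% humidity throughout. Soil was sprayed before emergence, one day after sowing, using an acetone/water (50:50) formulation with 0.5% Tween 20; injury was scored 0–5 after 13 days.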

Amaranthus retroflexus [2] = experiment: as above; conditions: pre-emergence spray, rate 1000 g/ha, evaluated after 13 days, scale 0-5
Summary of the method: as §1

Echinochloa crus-galli [3] = experiment: as above; conditions: pre-emergence spray, rate 1000 g/ha, evaluated after 13 days, scale 0-5
Summary of the method: as §1

Setaria faberi [4] = experiment: as above; conditions: pre-emergence spray, rate 1000 g/ha, evaluated after 13 days, scale 0-5
Summary of the method: as §1

Solanum nigrum [5] = experiment: as above; conditions: pre-emergence spray, rate 1000 g/ha, evaluated after 13 days, scale 0-5
Summary of the method: as §1

zea mays [6] = experiment: as above; conditions: pre-emergence spray, rate 1000 g/ha, evaluated after 13 days, scale 0-5
Summary of the method: as §1

Alopecurus myosuroides [7] = experiment: Post-emergence herbicidal activity, glasshouse pot test; parameters: key: 0 = no damage to plant, 5 = total damage to plant; conditions: Application post-emergence, rate 1000 g/ha, evaluated after 13 days
Summary of the method: (§2)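 Damage rated 0 (none) to 5 (total) 13 days after spraying. Plants were treated post-emergence at 8 days after sowing, using an acetone/water (50:50) formulation with 0.5% Tween 20 diluted to an aqueous spray.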

Amaranthus retroflexus [8] = experiment: as above; parameters: key: 0 = no damage to plant, 5 = total damage to plant; conditions: Application post-emergence, rate 1000 g/ha, evaluated after 13 days
Summary of the method: as §2

Echinochloa crus-galli [9] = experiment: as above; parameters: key: 0 = no damage to plant, 5 = total damage to plant; conditions: Application post-emergence, rate 1000 g/ha, evaluated after 13 days
Summary of the method: as §2

Setaria faberi [10] = experiment: as above; parameters: key: 0 = no damage to plant, 5 = total damage to plant; conditions: Application post-emergence, rate 1000 g/ha, evaluated after 13 days
Summary of the method: as §2

zea mays [11] = experiment: as above; parameters: key: 0 = no damage to plant, 5 = total damage to plant; conditions: Application post-emergence, rate 1000 g/ha, evaluated after 13 days
Summary of the method: as §2

Solanum nigrum [12] = experiment: as above; conditions: Application post-emergence, rate 1000 g/ha, evaluated after 13 days
Method: Seeds of a variety of test species were sown in standard soil in pots. After 8 days cultivation (post-emergence) under controlled conditions in a glasshouse (at 24/16° C., day/night; 14 hours light; 65% humidity), the plants were sprayed with an aqueous spray solution derived from the formulation of the technical active ingredient in acetone/water (50:50) solution containing 0.5% Tween 20 (polyoxyethelyene sorbitan monolaurate, CAS RN 9005-64-5). The test plants were then grown in a glasshouse under controlled conditions (at 24/16° C., day/night; 14 hours light; 65% humidity) and watered twice daily. After 13 days, the test was evaluated (5=total damage to plant; 0=no damage to plant).
ABUTH=Abutilon theophrasti; SOLNI=Solanum nigrum; AMARE=Amaranthus retroflexus; SETFA=Setaria faberi; ALOMY=Alopecurus myosuroides; ECHCG=Echinochloa crus-galli, ZEAMX=zea mays.

CC1=C(Cl)C(=O)N(c2ccc(Cl)cn2)C1O (stereo not drawn) [AF65]
ALOMY damage score, application pre-emergence (Alopecurus myosuroides [1]): 2 | AMARE damage score, application pre-emergence (Amaranthus retroflexus [2]): 5 | ECHCG damage score, application pre-emergence (Echinochloa crus-galli [3]): 1 | SETFA damage score, application pre-emergence (Setaria faberi [4]): 2 | SOLNI damage score, application pre-emergence (Solanum nigrum [5]): 4 | ZEAMX damage score, application pre-emergence (zea mays [6]): 0 | ALOMY herbicidal damage score (Alopecurus myosuroides [7]): 4 | AMARE herbicidal damage score (Amaranthus retroflexus [8]): 5 | ECHCG herbicidal damage score (Echinochloa crus-galli [9]): 4 | SETFA herbicidal damage score (Setaria faberi [10]): 5 | ZEAMX herbicidal damage score (zea mays [11]): 1 | SOLNI herbicidal damage score (Solanum nigrum [12]): 5

CC1=C(Cl)C(=O)N(c2cc(Cl)ccn2)C1O (stereo not drawn) [AF66]
ALOMY damage score, application pre-emergence (Alopecurus myosuroides [1]): 2 | AMARE damage score, application pre-emergence (Amaranthus retroflexus [2]): 5 | ECHCG damage score, application pre-emergence (Echinochloa crus-galli [3]): 2 | SETFA damage score, application pre-emergence (Setaria faberi [4]): 3 | SOLNI damage score, application pre-emergence (Solanum nigrum [5]): 5 | ZEAMX damage score, application pre-emergence (zea mays [6]): 0 | ALOMY herbicidal damage score (Alopecurus myosuroides [7]): 4 | AMARE herbicidal damage score (Amaranthus retroflexus [8]): 5 | ECHCG herbicidal damage score (Echinochloa crus-galli [9]): 4 | SETFA herbicidal damage score (Setaria faberi [10]): 5 | ZEAMX herbicidal damage score (zea mays [11]): 2 | SOLNI herbicidal damage score (Solanum nigrum [12]): 5

CC1=C(Cl)C(=O)N(c2ccc(F)cn2)C1O (stereo not drawn) [AF67]
ALOMY damage score, application pre-emergence (Alopecurus myosuroides [1]): 2 | AMARE damage score, application pre-emergence (Amaranthus retroflexus [2]): 5 | ECHCG damage score, application pre-emergence (Echinochloa crus-galli [3]): 1 | SETFA damage score, application pre-emergence (Setaria faberi [4]): 3 | SOLNI damage score, application pre-emergence (Solanum nigrum [5]): 3 | ZEAMX damage score, application pre-emergence (zea mays [6]): 0 | ALOMY herbicidal damage score (Alopecurus myosuroides [7]): 3 | AMARE herbicidal damage score (Amaranthus retroflexus [8]): 5 | ECHCG herbicidal damage score (Echinochloa crus-galli [9]): 4 | SETFA herbicidal damage score (Setaria faberi [10]): 4 | ZEAMX herbicidal damage score (zea mays [11]): 1 | SOLNI herbicidal damage score (Solanum nigrum [12]): 5

CC1=C(Cl)C(=O)N(c2ccc(C)cn2)C1O (stereo not drawn) [AF69]
ALOMY damage score, application pre-emergence (Alopecurus myosuroides [1]): 3 | AMARE damage score, application pre-emergence (Amaranthus retroflexus [2]): 5 | ECHCG damage score, application pre-emergence (Echinochloa crus-galli [3]): 4 | SETFA damage score, application pre-emergence (Setaria faberi [4]): 4 | SOLNI damage score, application pre-emergence (Solanum nigrum [5]): 5 | ZEAMX damage score, application pre-emergence (zea mays [6]): 1 | ALOMY herbicidal damage score (Alopecurus myosuroides [7]): 5 | AMARE herbicidal damage score (Amaranthus retroflexus [8]): 5 | ECHCG herbicidal damage score (Echinochloa crus-galli [9]): 5 | SETFA herbicidal damage score (Setaria faberi [10]): 5 | ZEAMX herbicidal damage score (zea mays [11]): 3 | SOLNI herbicidal damage score (Solanum nigrum [12]): 5

CC1=C(Cl)C(=O)N(c2ccc(C(F)(F)F)cn2)C1O (stereo not drawn) [AF70]
ALOMY damage score, application pre-emergence (Alopecurus myosuroides [1]): 3 | AMARE damage score, application pre-emergence (Amaranthus retroflexus [2]): 5 | ECHCG damage score, application pre-emergence (Echinochloa crus-galli [3]): 3 | SETFA damage score, application pre-emergence (Setaria faberi [4]): 5 | SOLNI damage score, application pre-emergence (Solanum nigrum [5]): 5 | ZEAMX damage score, application pre-emergence (zea mays [6]): 0 | ALOMY herbicidal damage score (Alopecurus myosuroides [7]): 5 | AMARE herbicidal damage score (Amaranthus retroflexus [8]): 5 | ECHCG herbicidal damage score (Echinochloa crus-galli [9]): 5 | SETFA herbicidal damage score (Setaria faberi [10]): 5 | ZEAMX herbicidal damage score (zea mays [11]): 2 | SOLNI herbicidal damage score (Solanum nigrum [12]): 5

CC1=C(Br)C(=O)N(c2ccc(C(F)(F)F)cn2)C1O (stereo not drawn) [AG2]
ALOMY damage score, application pre-emergence (Alopecurus myosuroides [1]): 3 | AMARE damage score, application pre-emergence (Amaranthus retroflexus [2]): 5 | ECHCG damage score, application pre-emergence (Echinochloa crus-galli [3]): 1 | SETFA damage score, application pre-emergence (Setaria faberi [4]): 4 | SOLNI damage score, application pre-emergence (Solanum nigrum [5]): 4 | ZEAMX damage score, application pre-emergence (zea mays [6]): 0 | ALOMY herbicidal damage score (Alopecurus myosuroides [7]): 4 | AMARE herbicidal damage score (Amaranthus retroflexus [8]): 5 | ECHCG herbicidal damage score (Echinochloa crus-galli [9]): 5 | SETFA herbicidal damage score (Setaria faberi [10]): 5 | ZEAMX herbicidal damage score (zea mays [11]): 2 | SOLNI herbicidal damage score (Solanum nigrum [12]): 5
